Reference: patent US5688767A, “Treatment of endotoxin-associated disorders with cationic peptides” (priority 1996, dated 1997)

Assays:
[1] = test system: Gram-negative bacteria; assay: MIC range over a broad range of Gram-negative bacteria; assay type: cell-based; settings: broad range of Gram-negative bacteria (Table 9)
Protocol: CEME and CEMA were able to kill a broad range of Gram-negative bacteria with MICs ranging from 1-16 μg/ml (Table 9). These bacteria included many of the life-threatening gram-negative pathogens associated with septicemia and endotoxic shock.
(§1) Bacteria included the Bort strain of E. coli (Bortolussi, et al., Inf. Immun., 25:293, 1979) that was originally derived from a case of neonatal meningitis, and which is therefore considered a relevant pathogenic strain to study, and the 0111:B4 strain of E. coli (kindly provided by Dr. D. Morrison) which is a standard source of endotoxin. (Kelly, et al., Inf. Immun., 59:4491, 1991). In addition, P. aeruginosa PA01 strain H103, P. aeruginosa M2, P. aeruginosa K799, Eschericha coli UB 1005, Enterobacter cloacae 218S, Salmonella typhimurium MS7953s, Klebsiella pneumoniae ATCC 13883, Xanthomonas maltophilia ATCC 13637, and Acinetobacter calcoacetious 8193 were employed. LPS was obtained from E. coli Bort by the technique of Westphal and Jann, (Westphal, et al., Acad. Press, Inc. NY., 5:83) and from P. aeruginosa H103 by the method of Darveau and Hancock, (Darveau, et al., J. Bacteriol, 155:831, […]). E. coli 0111:B4 LPS was purchased from Sigma.

[2] = Lethality of peptide alone in mice; assay type: in vivo
[3] = test system: P. aeruginosa; assay: microbe, parasite or virus in culture; assay type: cell-based, Pseudomonas aeruginosa; settings: fragments of CEMA, strain not given
Protocol: (§2) The minimum inhibitory concentrations of (MIC) of CEME, CEMA and melittin were determined for a number of different bacteria (Table 2). Briefly, cells were grown overnight at 37° C. in LB-S (Luria broth without any salt supplement) and diluted one in 10,000 in the same medium to give concentrations of about 10^4 to 10^5 CFU/ml. The broth dilutions were set up in a 96 well microtiter plate by putting 200 μl of LB-S containing the initial concentration of antibiotic or compound in column 1 and 100 μl of the same medium in columns 2-12. The compounds were diluted by taking 100 μl of broth from column 1 and mixing it with column 2, resulting in a one in two dilution. This was continued to column 10. Finally, 10 μl of bacteria were pipetted into columns 1-11, and the plates incubated overnight at 37° C. The next day the plates were scored for growth in the wells, and the MIC determined.
as §1

[4] = test system: S. aureus; assay: microbe, parasite or virus in culture; assay type: cell-based, Staphylococcus aureus; settings: fragments of CEMA, strain not given
Protocol: as §2

[5] = test system: Candida albicans; assay: MIC, same assay; assay type: cell-based; settings: fragments of CEMA
[6] = test system: E. coli; assay: microbe, parasite or virus in culture; assay type: cell-based, Escherichia coli; settings: fragments of CEMA, strain not given
Protocol: as §2, §1

[7] = test system: P. aeruginosa H309 or E. cloacae 218R1; assay type: cell-based, Pseudomonas aeruginosa; Enterobacter cloacae; settings: 10 μM NPN
From the text: The second assay determined membrane permeability by the ability of 1-N-phenylnaphthylamine(NPN), a small fluorescent probe, to insert itself into the membrane. Normally, very little NPN can penetrate the outer membrane, but in the presence of a membrane permeabilizer it can insert into the hydrophobic membrane resulting in an increase in fluorescence (FIGS. 7 and 8). This N-phenylnaphthylamine uptake assay was previously described by Loh, et al., Antimicrobial Agents and Chemo., 26:546, 1984. Cells were prepared exactly the same as for the lysozyme lysis assay. 1-N-phenylnaphthylamine(NPN) was dissolved in acetone at a concentration of 500 μM. NPN fluorescence was measured in a Perkin-Elmer 650-10S fluorescent spectrophotometer using excitation and emission wavelengths set to 350 nm and 420 nm respectively, with slit widths of 5 nm. The assay was standardized by adding 20 μl of NPN (final concentration of 10 μM) and 10 μl of 0.64 mg/ml of polymyxin B (final concentration of 6.4 μg/ml) into 1 ml of cells, and adjusting the resulting fluorescence to read 90% deflection (90 arbitrary units). Various compounds were tested by adding 10 μl of different concentrations to a cuvette containing 1 ml of cells and 10 μM NPN. Permeabilizing activity was designated as the total fluorescence minus the fluorescence due to NPN alone. Following the fluorescence measurement, the OD600 of the cells was taken to ensure no significant cell lysis had occurred.

[8] = test system: P. aeruginosa H309 or E. cloacae 218R1; assay: Lysozyme lysis assay (outer membrane permeabilization); assay type: cell-based, Pseudomonas aeruginosa; Enterobacter cloacae; settings: 50 μg/ml lysozyme, varying concentrations of compound
Protocol: Membrane permeabilization by polycationic compounds was measured in two different assays. The first assay measured membrane disruption by the ability of lysozyme to reach the periplasm and cause cell lysis. […] The uptake of lysozyme into whole cells due to membrane permeabilization by various compounds was previously described in Hancock, et al., Antimicrobial Agents and Chemo., 19:777, 1981. Overnight cultures of P. aeruginosa H309 or E. cloacae 218R1 grown in LB-S were diluted 1 in 50 in fresh medium and grown to an OD600 =0.5-0.6. The cells were harvested in a Silencer H-103N clinical centrifuge at 1800 g for 10 min, washed once with one volume of assay buffer (5 mM HEPES pH 7.2, 5 mM KCN), and resuspended in the same buffer to an OD600 of 0.5. Assays consisted of 600 μl of cells with 50 μg/ml of chicken egg white lysozyme and varying concentrations of cationic compounds. Cell lysis was measured as a decrease in the OD600 in a Perkin-Elmer dual beam spectrophotometer. Parallel experiments performed without lysozyme enabled the measurement of the lytic activity of the compounds themselves. To test whether or not permeability to lysozyme could be inhibited by divalent cations, various concentrations of MgCl2 were added to the assay after the addition of lysozyme and before the addition of the test compound.

[9] = test system: E. coli strain DC2; assay: Antibacterial activity on acid-urea gel overlaid with bacteria; assay type: cell-based, Escherichia coli; settings: ≈10^5 E. coli strain DC2, overnight at 37° C.
Protocol: A sample of the partially purified CEME protein was electrophoresed on a 15% acid-urea gel, which separates proteins based on charge and mass (Panyim and Chalkey, Arch. Biochem. Biophys., 130:337, 1969). The pH of the buffer is acidic (≈pH 5.0) and the polarity is reversed such that proteins migrate to the cathode. Therefore, the small cationic peptides run relatively quickly through the gel and thus can be easily identified. Antibacterial activity was tested as previously described (Hultmark, Eur. J. Biochem., 106:7, 1980). The gel was incubated in Mueller Hinton broth+0.2M NaPO4 pH 7.4 for 1 hr. It was overlaid with 5 mls of the same media containing 0.6% agar and ≈10^5 E. coli strain DC2, and then again with 5 ml of the same media containing only 0.6% agar. […] Melittin is used as a positive control due to its antibacterial activity and similarity in size and PI values.

Compound: CC[C@H](C)[C@H](NC(=O)CNC(=O)[C@@H](NC(=O)[C@H](CCCCN)NC(=O)[C@H](CCCCN)NC(=O)[C@H](Cc1ccccc1)NC(=O)[C@H](CC(C)C)NC(=O)[C@H](CCCCN)NC(=O)[C@H](Cc1c[nH]c2ccccc12)NC(=O)[C@@H](N)CCCCN)[C@@H](C)CC)C(=O)NCC(=O)N[C@@H](C)C(=O)N[C@H](C(=O)N[C@@H](CC(C)C)C(=O)N[C@@H](CCCCN)C(=O)N[C@H](C(=O)N[C@@H](CC(C)C)C(=O)N[C@H](C(=O)N[C@H](C(=O)NCC(=O)N[C@@H](CC(C)C)C(=O)N1CCC[C@H]1C(=O)N[C@@H](C)C(=O)N[C@@H](CC(C)C)C(=O)N[C@H](C(=O)N[C@@H](CO)C(=O)O)[C@@H](C)CC)[C@@H](C)O)[C@@H](C)O)C(C)C)C(C)C [CEME]
- MICs, range over strains [1]: 1 to 16 µg/mL
- survival of mice given peptide alone ([2]; 200 μg (8.7 mg/kg) alone): survived
- % Mortality ([2]; no LPS, peptide 200 ug): 0%
- dead/total ([2]; no LPS, peptide 200 ug): 0/5

Compound: CC[C@H](C)[C@H](NC(=O)CN)C(=O)NCC(=O)N[C@@H](C)C(=O)N[C@H](C(=O)N[C@@H](CC(C)C)C(=O)N[C@@H](CCCCN)C(=O)N[C@H](C(=O)N[C@@H](CC(C)C)C(=O)N[C@H](C(=O)N[C@H](C(=O)NCC(=O)N[C@@H](CC(C)C)C(=O)N1CCC[C@H]1C(=O)N[C@@H](C)C(=O)N[C@@H](CC(C)C)C(=O)N[C@@H](CCCCN)C(=O)N[C@@H](CC(C)C)C(=O)N[C@H](C(=O)N[C@@H](CCCCN)C(=O)O)[C@@H](C)O)[C@@H](C)O)[C@@H](C)O)C(C)C)C(C)C [MA]
- MIC [3]: greater than 64 ug/ml
- MIC [4]: greater than 64 ug/ml
- MIC [5]: greater than 64 ug/ml
- MIC [6]: greater than 64 ug/ml

Compound: CC[C@H](C)[C@H](NC(=O)CN)C(=O)NCC(=O)N[C@@H](C)C(=O)N[C@H](C(=O)N[C@@H](CC(C)C)C(=O)N[C@@H](CCCCN)C(=O)N[C@H](C(=O)N[C@@H](CC(C)C)C(=O)N[C@H](C(=O)N[C@H](C(=O)NCC(=O)N[C@@H](CC(C)C)C(=O)N1CCC[C@H]1C(=O)N[C@@H](C)C(=O)N[C@@H](CC(C)C)C(=O)N[C@H](C(=O)N[C@@H](CO)C(=O)N[C@@H](Cc1c[nH]c2ccccc12)C(=O)N[C@H](C(=O)N[C@@H](CCCCN)C(=O)N[C@@H](CCCNC(=N)N)C(=O)N[C@@H](CCCCN)C(=O)N[C@@H](CCCNC(=N)N)C(=O)N[C@@H](CCC(N)=O)C(=O)N[C@@H](CCC(N)=O)C(N)=O)[C@@H](C)CC)[C@@H](C)CC)[C@@H](C)O)[C@@H](C)O)C(C)C)C(C)C [Melittin, melittin]
- activity in opening up the membrane to NPN [7]: less active
- permeabilization of outer membrane to lysozyme [8]: did not appear to be a good permeabilizer
- antibacterial activity on overlaid gel [9]: zones of clearing
